Tests used:
Assay type in all cases: in vivo
[1] = test system: Green Soldier Stink Bug (Nezara viridula); assay: Green soldier stink bug, sprayed soybean pods in Petri dishes; conditions: 120 h, 300 ppm, late 3rd instar on soybean pods, after 5 days, in comparison with untreated controls, read-out: mortality
Procedure: B.11 Green Soldier Stink Bug (Nezara viridula)
The active compound was dissolved at the desired concentration in a mixture of 1:1 (vol:vol) distilled water:acetone. Surfactant (Kinetic HV) was added at a rate of 0.01% (vol/vol). The test solution was prepared at the day of use.
Soybean pods were placed in glass Petri dishes lined with moist filter paper and inoculated with ten late 3rd instar N. viridula. Using a hand atomizer, approximately 2 ml solution is sprayed into each Petri dish. Assay arenas were kept at about 25° C. Percent mortality was recorded after 5 days.

[2] = test system: Orchid Thrips (dichromothrips corbetti); assay: Orchid thrips, floral-immersion technique; conditions: 300 ppm; adult thrips on dipped orchid petals; 72 hours after treatment; in comparison with untreated controls; read-out: mortality
Procedure: B.7 Orchid Thrips (dichromothrips corbetti)
Dichromothrips corbetti adults used for bioassay were obtained from a colony maintained continuously under laboratory conditions. For testing purposes, the test compound is diluted in a 1:1 mixture of acetone:water (vol:vol), plus Kinetic HV at a rate of 0.01% v/v.
Thrips potency of each compound was evaluated by using a floral-immersion technique. All petals of individual, intact orchid flowers were dipped into treatment solution and allowed to dry in Petri dishes. Treated petals were placed into individual re-sealable plastic along with about 20 adult thrips. All test arenas were held under continuous light and a temperature of about 28° C. for duration of the assay. After 3 days, the numbers of live thrips were counted on each petal. The percent mortality was recorded 72 hours after treatment.

[3] = test system: Brown Marmorated Stink Bug (Halyomorpha halys); assay: Brown marmorated stink bug, sprayed peanuts and soybean seeds in cups; conditions: 120 h, 100 ppm, adults on peanuts and soybean seeds, after 5 days, in comparison with untreated controls, read-out: mortality
Procedure: B.13 Brown Marmorated Stink Bug (Halyomorpha halys)
The active compound was dissolved at the desired concentration in a mixture of 1:1 (vol:vol) distilled water: acetone. Surfactant (Kinetic HV) was added at a rate of 0.01% (vol/vol). The test solution was prepared at the day of use.
Row peanuts and soybean seeds were placed into microwavable plastic cups and inoculated with five adult stage H. halys. Using a hand atomizer, approximately 1 ml solution is sprayed into each cup, insects and food present. A water source was provided (cotton wick with water). Each treatment is replicated 4-fold. Assay arenas are kept at about 25° C. Percent mortality was recorded after 5 days.

[4] = test system: Green Peach Aphid (Myzus persicae); assay: Green peach aphid, systemic test on artificial diet in microtiter plates; conditions: 72 h, 2500 ppm, adult aphids on treated artificial diet, 3 days, in comparison with untreated controls, read-out: mortality
Text: B.2 Green Peach Aphid (Myzus persicae)
For evaluating control of green peach aphid (Myzus persicae) through systemic means the test unit consisted of 96-well-microtiter plates containing liquid artificial diet under an artificial mem brane.
The compounds were formulated using a solution containing 75% v/v water and 25% v/v DMSO. Different concentrations of formulated compounds were pipetted into the aphid diet, using a custom built pipetter, at two replications.
After application, 5-8 adult aphids were placed on the artificial membrane inside the microtiter plate wells. The aphids were then allowed to suck on the treated aphid diet and incubated at about 23±1° C. and about 50±5% relative humidity for 3 days. Aphid mortality and fecundity was then visually assessed.

O=C(NC1CS(=O)(=O)C1)c1ccc(C2=NCC(c3cc(Cl)c(F)c(Cl)c3)(C(F)(F)F)C2)c2c1CCC2 (stereo not shown) [Compound 2-3, 7-[3-(3,5-Dichloro-4-fluoro-phenyl)-3-(trifluoromethyl)-2,4-dihydropyrrol-5-yl]-N-(1,1-dioxothietan-3-yl)indane-4-carboxamide]
≥ 75%: mortality at 300 ppm [1] | mortality at 300 ppm [2] | mortality at 100 ppm [3] | mortality at 2500 ppm [4]
